Tests used:
[1] = molecular target: T1, human androgen receptor (hAR) (Homo sapiens, UniProt P10275); experiment: androgen receptor-dependent MMTV-luc reporter gene assay (luciferase assay) in transfected CV1 cells; format: cell-based; conditions: for antiandrogenic effect of atraric acid derivatives and structurally similar compounds: FIGS. 6 and 7, concentration not given (FIG. 6: 10^−6 M); for inactivation of androgen receptor-mediated transactivation: 1 μM concentration; for inhibition of androgen receptor-mediated transactivation: 10 μM concentration, FIG. 7
T1 construct: expressed in transfected cells; host or cells: CV1 monkey kidney cells, which lack endogenous androgen receptor
T1 sequence (P10275 1-920): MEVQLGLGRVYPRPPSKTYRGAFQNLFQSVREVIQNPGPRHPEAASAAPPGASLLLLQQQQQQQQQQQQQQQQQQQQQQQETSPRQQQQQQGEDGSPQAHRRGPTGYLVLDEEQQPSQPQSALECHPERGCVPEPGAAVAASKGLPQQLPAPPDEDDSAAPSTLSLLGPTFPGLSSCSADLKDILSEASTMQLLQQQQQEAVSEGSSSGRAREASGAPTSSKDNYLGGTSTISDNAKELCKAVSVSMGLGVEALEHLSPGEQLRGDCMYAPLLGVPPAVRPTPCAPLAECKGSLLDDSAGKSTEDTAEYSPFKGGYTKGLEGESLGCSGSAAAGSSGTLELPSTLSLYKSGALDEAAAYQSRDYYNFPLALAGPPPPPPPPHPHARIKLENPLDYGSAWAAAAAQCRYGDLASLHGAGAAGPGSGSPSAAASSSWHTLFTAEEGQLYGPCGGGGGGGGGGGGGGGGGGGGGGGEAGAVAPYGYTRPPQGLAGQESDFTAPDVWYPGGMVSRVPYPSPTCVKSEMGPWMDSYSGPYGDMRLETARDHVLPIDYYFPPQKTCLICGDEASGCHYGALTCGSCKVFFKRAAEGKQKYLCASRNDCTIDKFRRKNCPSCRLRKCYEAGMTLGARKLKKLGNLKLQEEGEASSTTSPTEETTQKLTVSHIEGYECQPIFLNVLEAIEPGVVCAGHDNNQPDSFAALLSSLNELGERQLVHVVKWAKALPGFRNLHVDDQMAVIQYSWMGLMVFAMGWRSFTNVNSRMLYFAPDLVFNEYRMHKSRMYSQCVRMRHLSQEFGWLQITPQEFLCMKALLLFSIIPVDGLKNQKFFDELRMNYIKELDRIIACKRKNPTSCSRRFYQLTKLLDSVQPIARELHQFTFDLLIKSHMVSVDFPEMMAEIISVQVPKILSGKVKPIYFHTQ
Description: The potentially antiandrogenic efficacy of the extracts obtained was examined with the androgen receptor-dependent MMTV-luc reporter gene assay, in the following designated as luciferase assay.
In that assay, the enzyme luciferase serves as a reporter gene. Luciferase is an oxidoreductase from the North American firefly Photinus pyralis, which […] the substrate luciferin in the presence of aerial oxygen, ATP and Mg^2+ ions, to oxyluciferin. The energy emitted in the process is emitted as light.
The reporter gene luciferase is located on the plasmid pMMTV-luc (MMTV=Mouse mammary tumour virus), on which is also located the androgen-responsive element (ARE). The plasmid pMMTV-luc is transfected, together with the androgen receptor expression vector, into fibroblasts of the monkey kidney. If an androgen is added thereto, this androgen will bind, in a complex with the androgen receptor, to the androgen-responsive element. This process then initiates the transcription of the following gene, namely that of the luciferase reporter gene. The amount of the expressed luciferase is directly proportional to the amount of light released when adding luciferin, and the amount of light can be quantified by measuring the emission at λ=562 nm. If apart from the androgen there is also an antiandrogenic substance or an antiandrogenic extract, the transactivation of the luciferase reporter gene by the androgen-responsive element is inhibited and later, when the substrate is added, a correspondingly smaller amount of light energy is released.
The extracts were then examined at two concentrations (300 μg/ml and 600 μg/ml) for their antiandrogenic bioactivity using the luciferase assay.
Monkey kidney cells, line CV1, lacking endogenous androgen receptor, were cultured in Dulbecco's modified Eagle's medium (DMEM), supplemented with 10% (v/v) fetal calf serum, penicillin (100 IU/ml) and streptomycin (100 IU/ml), at 37° C. and 5% CO2.
For the transfection experiments, the cells were seeded onto 6-well cell culture plates (Nunc, Roskilde, Denmark) with a density of 1.2×10^5 cells per well, and grown in DMEM medium supplemented with 10% (v/v) dextran-coated activated charcoal stripped serum. Six hours after seeding, the cells were transfected by using the Ca3(PO4)2 method. The human androgen receptor (hAR) expression vector (0.2 μg) was cotransfected with 1 μg of the reporter plasmid MMTV-luc and 0.2 μg of the cytomegalovirus (CMV)-driven β-galactosidase expression virus, as internal control for transfection efficiency. After 14 hours, the medium was replaced either without (white bars in FIGS. 1 to 3) or with the addition of methyltrienolone (R1881, 3×10^−10 M final concentration; black bars in FIGS. 1 to 3) together with the indicated extracts (FIG. 1), fractions of the methylene chloride extract (FIG. 2) or individual isolated compounds (FIG. 3). After an additional 48 hours, cells were harvested and assayed for luciferase and β-galactosidase activity.
Luciferase activity was determined by injecting luciferin and measuring light emission at 562 nm and expressed as relative light units (RLU) by using the values […] β-galactosidase activity for normalisation of the luciferase activity. All transfection assays shown were performed in duplicate and were repeated at least twice.
For determining antiandrogenic activity in the various extracts from the bark of P. africana, the extracts were used at a concentration of 300 μg/ml.
For determining the antiandrogenic activity in the fractions of the selective methylene chloride extracts, 2 μl of the respective fraction was used, corresponding to a final concentration of 30 μg/ml. Fractions 6 to F10 were additionally tested with 4 μl, corresponding to 60 μg/ml final concentration.

[2] = tested on: human prostate carcinoma cells (cell line LNCaP); experiment: LNCaP cell growth assay; format: cell-based; conditions: FIG. 4; for growth of LNCaP cells: atraric acid 10 μM, OH—F 0.1 μM
Method: The growth of prostate cells and prostate cancer cells is originally dependent on androgens.
Human prostate carcinoma cells (cell line LNCaP) were cultured in RPMI-1640 medium that was supplemented with 10% (v/v) fetal calf serum, penicillin (100 IU/ml) and streptomycin (100 IU/ml), 2 mM glutamine and 1 mM sodium pyruvate.
For the cell growth assays, LNCaP cells were seeded onto a 24-well cell culture plate at a density of 5×10^3 cells per well and cultured in RPMI-1640 medium containing 5% fetal calf serum. […] Every second day the medium was replaced with fresh medium together with freshly added compounds. The cells were trypsinized and counted using a counting cell chamber on the indicated days.

[3] = molecular target: T2, human ERβ (Homo sapiens, UniProt Q92731); experiment: p2ERE-TATA-luc reporter gene assay in CV1 cells transfected with ERβ; format: cell-based; conditions: FIG. 8
T2 construct: expressed in transfected cells; host or cells: CV1 cells
Method: (§1) After seven days, the cells were seeded in 6-well plates (Nunc, Roskilde, Denmark) at a density of 1.5×10^5 cells per well. After 24 hours, the cells were transfected according to the calcium phosphate method with 2 μg of the reporter gene-encoding expression plasmid, 0.2 μg of the ERα-encoding or ERβ-encoding expression plasmid and, for reasons of normalisation, 0.2 μg of the cytomegalovirus-derived β-galactosidase. […] After 48 hours, the cells were harvested and assayed for luciferase and β-galactosidase activity. All transfection assays were performed in duplicate and were repeated at least twice.

[4] = molecular target: T3, human ERα (Homo sapiens, UniProt P03372); experiment: p2ERE-TATA-luc reporter gene assay in CV1 cells transfected with ERα; format: cell-based; conditions: FIG. 9
T3 construct: expressed in transfected cells; host or cells: CV1 cells
Method: as §1

[5] = tested on: pathologically altered androgen receptor; conditions: background, prior work; cited from earlier work
[6] = no estradiol present, 10 μM or 100 μM

T2 sequence (Q92731 whole entry): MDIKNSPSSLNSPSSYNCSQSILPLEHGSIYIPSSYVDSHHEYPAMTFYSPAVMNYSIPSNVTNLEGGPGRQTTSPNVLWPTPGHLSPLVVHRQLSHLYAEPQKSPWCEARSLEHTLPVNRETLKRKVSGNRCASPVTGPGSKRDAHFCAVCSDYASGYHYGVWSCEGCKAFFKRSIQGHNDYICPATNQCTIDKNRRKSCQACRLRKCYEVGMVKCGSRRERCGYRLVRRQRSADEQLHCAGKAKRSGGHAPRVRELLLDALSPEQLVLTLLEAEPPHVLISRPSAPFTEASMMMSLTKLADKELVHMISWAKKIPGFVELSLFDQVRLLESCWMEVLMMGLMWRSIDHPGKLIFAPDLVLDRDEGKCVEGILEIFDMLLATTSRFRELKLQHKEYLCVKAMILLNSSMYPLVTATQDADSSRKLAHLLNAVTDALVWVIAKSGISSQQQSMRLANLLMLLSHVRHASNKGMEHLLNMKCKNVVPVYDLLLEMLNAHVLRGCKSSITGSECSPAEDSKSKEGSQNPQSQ
T3 sequence (P03372 whole entry): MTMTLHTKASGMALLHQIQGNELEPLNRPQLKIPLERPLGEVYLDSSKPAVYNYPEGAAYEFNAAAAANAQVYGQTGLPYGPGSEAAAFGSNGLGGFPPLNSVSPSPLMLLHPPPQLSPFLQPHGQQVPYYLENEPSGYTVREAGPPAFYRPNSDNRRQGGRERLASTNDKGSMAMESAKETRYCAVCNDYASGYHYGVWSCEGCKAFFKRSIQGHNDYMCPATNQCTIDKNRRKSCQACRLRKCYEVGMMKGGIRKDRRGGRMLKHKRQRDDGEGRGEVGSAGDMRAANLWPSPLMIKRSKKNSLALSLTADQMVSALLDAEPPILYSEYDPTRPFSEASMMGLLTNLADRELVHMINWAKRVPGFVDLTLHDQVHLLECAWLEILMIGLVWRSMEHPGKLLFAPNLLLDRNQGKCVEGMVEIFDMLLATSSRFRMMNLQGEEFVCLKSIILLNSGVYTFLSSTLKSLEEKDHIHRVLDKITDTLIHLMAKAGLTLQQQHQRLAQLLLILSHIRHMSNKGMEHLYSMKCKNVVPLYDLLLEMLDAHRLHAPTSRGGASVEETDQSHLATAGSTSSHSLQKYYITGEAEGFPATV

Cc1cc(O)c(C)c(O)c1C(=O)OCCNS(=O)(=O)c1ccccc1 [A4, 2-[(phenylsulfonyl)amino]ethyl-2,4-dihydroxy-3,6-dimethylbenzoate]
antiandrogenic effect of atraric acid derivatives and structurally similar compounds [1]: no antiandrogenic effect

CC(C)=CCC/C(C)=C/COC(=O)c1cc(C)c(O)c(C)c1O [A5, (2E)-3,7-dimethylocta-2,6-dien-1-yl-2,4-dihydroxy-3,5-dimethylbenzoate]
antiandrogenic effect of atraric acid derivatives and structurally similar compounds [1]: did not lead to an antiandrogenically active molecule

Cc1cc(C(=O)OC(C)C)c(O)c(C)c1O [A6, isopropyl-2,4-dihydroxy-3,5-dimethylbenzoate]
inactivation of androgen receptor-mediated transactivation [1]: still able to inactivate
inhibition of androgen receptor-mediated transactivation [1]: nearly completely inhibiting

CC(C)(O)C(=O)Nc1ccc([N+](=O)[O-])c(C(F)(F)F)c1 [OH—F, hydroxyflutamide, reference compound]
growth of LNCaP cells [2]: did not lead to any reduction in growth

COC(=O)c1c(C)c(Br)c(O)c(Br)c1O [R1, methyl-3,5-dibromo-2,4-dihydroxy-6-methylbenzoate]
antiandrogenic effect of atraric acid derivatives and structurally similar compounds [1]: loss of anti androgenic activity

COC(=O)c1ccc(O)c(C)c1O [R4, methyl-2,4-dihydroxy-3-methylbenzoate]
inactivation of androgen receptor-mediated transactivation [1]: still able to inactivate
inhibition of androgen receptor-mediated transactivation [1]: nearly completely inhibiting

COC(=O)c1c(O)c(C)cc(C)c1O [R5, methyl-2,6-dihydroxy-3,5-dimethylbenzoate]
antiandrogenic effect of atraric acid derivatives and structurally similar compounds [1]: loss of antiandrogenic activity

Cc1cc(O)c(C)c(O)c1C(=O)O [R6, 2,4-dihydroxy-3,6-dimethylbenzoic acid]
antiandrogenic effect of atraric acid derivatives and structurally similar compounds [1]: abrogates the antiandrogenic activity

COC(=O)c1c(C)cc(O)c(C)c1O [atraric acid, methyl-2,4-dihydroxy-3,6-dimethylbenzoate]
estrogen-responsive expression of the reporter gene (ERβ agonism) [3, 6]: activated in a dose-dependent manner
hormone-mediated transactivation of ERβ ([3]; with estradiol): not affected
estrogen-responsive expression of the reporter gene (ERα agonism) [4, 6]: activated in a dose-dependent manner
hormone-mediated transactivation of ERα ([4]; with estradiol): not affected
growth of LNCaP cells versus untreated cells ([2]; 10 μM, 8th day of treatment): clearly slower
growth of LNCaP cells [2]: reduced growth

CC(=O)[C@@]1(O)CC[C@H]2[C@@H]3C=C(Cl)C4=CC(=O)[C@@H]5C[C@@H]5[C@]4(C)[C@H]3CC[C@@]21C [cyproterone]
inclusions in cells expressing a pathologically altered androgen receptor [5]: only a small number of inclusions

C[C@]12CC[C@H]3[C@@H](CCC4=CC(=O)CC[C@@]43C)[C@@H]1CC[C@@H]2O [testosterone]
inclusions in cells expressing a pathologically altered androgen receptor [5]: characteristic inclusions in the cytoplasm
